Test results: PubChem BioAssay (NCI)
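A five-concentration, 48-hour dose response in 96-well plates underlies each endpoint, interpolated linearly between surrounding concentrations. GI50 is the concentration that inhibits growth by half. TGI denotes the concentration required for complete inhibition of growth.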

Key:
Experiment in all cases: DTP human tumour cell line panel, 48 h
ACHN renal = system: ACHN renal
UACC-62 melanoma = system: UACC-62 melanoma
MALME-3M melanoma = system: MALME-3M melanoma
EKVX NSCLC = system: EKVX NSCLC
SF-539 CNS = system: SF-539 CNS
CCRF-CEM leukemia = system: CCRF-CEM leukemia
MDA-MB-231 breast = system: MDA-MB-231 breast
A549 NSCLC = system: A549 NSCLC
COLO 205 colon = system: COLO 205 colon
SF-295 CNS = system: SF-295 CNS

Compound	TGI (ACHN renal) [µM]	TGI (UACC-62 melanoma) [µM]	TGI (MALME-3M melanoma) [µM]	TGI (EKVX NSCLC) [µM]	TGI (SF-539 CNS) [µM]	TGI (CCRF-CEM leukemia) [µM]	TGI (MDA-MB-231 breast) [µM]	TGI (A549 NSCLC) [µM]	TGI (COLO 205 colon) [µM]	TGI (SF-295 CNS) [µM]	GI50 (MDA-MB-231 breast) [µM]	GI50 (ACHN renal) [µM]	GI50 (UACC-62 melanoma) [µM]	GI50 (A549 NSCLC) [µM]	GI50 (MALME-3M melanoma) [µM]	GI50 (COLO 205 colon) [µM]	GI50 (EKVX NSCLC) [µM]	GI50 (SF-539 CNS) [µM]	GI50 (CCRF-CEM leukemia) [µM]	GI50 (SF-295 CNS) [µM]
Cc1ccc(SSCCCCCS(=O)O)cc1	> 100	49.5	> 100	> 100	30.3	> 100	–	–	–	–	–	–	–	–	–	–	–	–	–	–
CNC(=O)Nc1ccccc1	> 100	> 100	> 100	> 100	> 100	> 100	> 100	> 100	> 100	> 100	–	–	–	–	–	–	–	–	–	–
O=C(COc1ccc(Cl)cc1Cl)N/N=C/C=C/c1ccc([N+](=O)[O-])o1	> 100	> 100	6.65	> 100	> 100	15.2	95.6	> 100	–	> 100	–	–	–	–	–	–	–	–	–	–
C[N+](C)(CCO)CCN1c2ccccc2Sc2ccccc21	> 10	> 10	> 10	> 10	> 10	> 10	> 10	> 10	> 10	> 10	–	–	–	–	–	–	–	–	–	–
COc1ccc2c(c1)CC[C@@H]1[C@@H]2CC[C@]2(C)C(=O)/C(=C/c3ccc(O)c(OC)c3)C[C@@H]12	> 100	> 100	–	> 100	–	> 100	> 100	> 100	> 100	> 100	–	–	–	–	–	–	–	–	–	–
C[C@]12CCC(=O)C=C1CC[C@@H]1[C@@H]2[C@@H](O)C[C@@]2(C)[C@H]1CC[C@]2(O)C(=O)COC(=O)C1CCCC1	> 100	> 100	> 100	> 100	> 100	> 100	> 100	> 100	> 100	> 100	–	–	–	–	–	–	–	–	–	–
O=S(O)c1cc(Cl)cc(Cl)c1OCc1ccccc1	> 100	> 100	> 100	> 100	> 100	> 100	–	–	–	–	–	–	–	–	–	–	–	–	–	–
COc1cc2c(cc1OC)-c1cc3ccc(OC)c(OC)c3c[n+]1CC2	> 100	> 100	> 100	> 100	> 100	> 100	> 100	> 100	> 100	> 100	–	–	–	–	–	–	–	–	–	–
O=C(NNC(=O)c1nsc2ccccc12)c1ccc(Cl)cc1	> 100	–	–	42.3	41.9	38.1	–	45.9	66	–	–	–	–	–	–	–	–	–	–	–
Nc1nc(=O)n(CC(O)CO)s1 (centres undefined)	> 100	> 100	> 100	> 100	> 100	> 100	–	> 100	> 100	> 100	–	–	–	–	–	–	–	–	–	–
Clc1ccc(-c2nnc(-c3c(Cl)c(Cl)c(Cl)c(Cl)c3-c3nc4ccccc4[nH]3)o2)cc1	> 100	> 100	> 100	> 100	> 100	> 100	–	–	> 100	> 100	–	–	–	–	–	–	–	–	–	–
O=C1C[C@H](CCC(=O)OCc2ccccc2)NC(=O)C[C@H](CCC(=O)OCc2ccccc2)NC(=O)C[C@H](CCC(=O)OCc2ccccc2)N1	69.4	> 100	> 100	> 100	40.4	> 100	78.3	> 100	> 100	42.8	–	–	–	–	–	–	–	–	–	–
CCOC(=O)c1c(CN2CCCC2)n(-c2ccccc2)c2cc(Br)c(OC)cc12	35.3	23.8	30.4	55.5	72.6	30.6	70.4	28.8	25.3	30.4	–	–	–	–	–	–	–	–	–	–
COc1ccc(C2C(C=O)C(N3CCN(C)CC3)=Nc3nc4ccccc4n32)cc1 (centres undefined)	41.8	36.5	26.3	97.3	54.5	17.8	31.4	38.5	36	50.9	–	–	–	–	–	–	–	–	–	–
Cn1c(=O)c2c(nc(NCCNc3nc4c(c(=O)n(C)c(=O)n4C)n3C)n2C)n(C)c1=O	> 100	> 100	> 100	> 100	–	> 100	> 100	> 100	–	> 100	–	–	–	–	–	–	–	–	–	–
COc1ccc2nc3ccccc3c(NCc3ccc(C)cc3)c2c1	3.03	3.26	3.29	7.94	3.18	11.4	4.12	4.71	3.78	2.74	1.76	1.58	1.64	1.96	1.81	1.65	2.5	1.68	2.37	1.34
NC(CC(=O)O)(Cc1ccccc1)C(=O)O (centres undefined)	> 100	> 100	> 100	> 100	> 100	> 100	> 100	> 100	> 100	> 100	–	–	–	–	–	–	–	–	–	–
CC(=O)C1=C(O)CCC1=O	> 100	> 100	> 100	> 100	> 100	> 100	–	> 100	> 100	> 100	–	–	–	–	–	–	–	–	–	–
